Tests used:
Format in all cases: physicochemical
[1] = Dynamic Vapor Sorption (DVS), moisture sorption/desorption; conditions: data not shown; for hygroscopicity suggested by vapor sorption data: DVS, 5% to 98% RH
Source text: Dynamic Vapor Sorption (DVS): Moisture sorption/desorption data were collected on a DVS-intrinsic vapor sorption analyser (Surface Measurement Systems NA, Allentown, PA, USA) and operating with DVS-intrinsic control software (Version 1.0.5.1). Samples were not dried prior to analysis. Sorption and desorption data were collected over a range from 5% to 98% relative humidity (RH) via 10% RH increments under a nitrogen purge. The equilibrium criterion used for analysis was less than 0.005% weight change in 10 min with a maximum equilibration time of 3 h.

[2] = Crystallization (polymorph) studies of compound 2: fast, reactive, slurry at 40° C., anti-solvent; solids analysed by XRPD; conditions: solvent 1,2 Prop Diol
Procedure: Forms I-XIII of compound 2 were prepared according to one of the crystallization methods described below, e.g., fast crystallization; reactive crystallization; slurry crystallization or anti-solvent crystallization.
Fast Crystallization Method: In a typical experiment, compound 2 (ca. 10 mg) was dissolved in minimum quantity the stated solvent while heating to 80° C. The resulted solution was allowed to cool down to room temperature. […]
Reactive Crystallization: Benzene sulfonic acid (BSA) was dissolved in THF to prepare a stock solution and used for all the reactive crystallization experiments. Compound A free base (ca. 30 mg) was dissolved in minimum quantity the stated solvent while heating to 80° C. The resultant compound A free base solutions were allowed to cooldown to RT and added one equivalent of BSA stock solution. It was observed that most of the reactions yielded precipitate. […]
Slurry Crystallization at 40° C. using Form I of compound 2: In a typical experiment, compound 2 (ca. 100 mg) was suspended in minimum quantity the stated solvent while heating to 40° C. The resulted slurries were allowed to stir at 40° C. for three days.
Anti-Solvent Crystallization: In a typical experiment, compound 2 (ca. 100 mg) was dissolved in solubilizing solvent. To that solution 200 μL anti-solvent was added slowly. These iterations were continued until the precipitation observed or maximum solvent quantity of ~15 mL.

[3] = Storage of solid form at RT, form followed by XRPD; conditions: storage at RT for about one month
Procedure: X-Ray Powder Diffraction (XRPD) Data Collection Strategy: XRPD patterns of samples were recorded at room temperature on Aeris X-ray diffractometer (Almelo, The Netherlands) using Cu Kα radiation (λ=1.54 Å) at 40 kV, 15 mA passing through a Ni monochromater. Data were collected in a continuous scan mode with a step size of 0.02° and dwell time of 149 s over an angular range of 3° to 40° 2θ. The sample was loaded on a zero-background holder and gently pressed by a clean glass slide to ensure coplanarity of the sample surface with the surface of the holder. Obtained diffractograms were analysed and plotted with HighScore Plus software (V 5.0; Almelo, The Netherlands).

C[C@@H](Oc1ccc2[nH]nc(-c3ccc(N4CC5(C4)CN(S(C)(=O)=O)C5)nc3)c2c1)c1c(Cl)cncc1Cl.O=C(O)/C=C/C(=O)O (stereo in doubt) [Form II of Compound 3]
hygroscopicity suggested by vapor sorption data [1]: moderately hygroscopic

C[C@@H](Oc1ccc2[nH]nc(-c3ccc(N4CC5(C4)CN(S(C)(=O)=O)C5)nc3)c2c1)c1c(Cl)cncc1Cl.O=S(=O)(O)c1ccccc1 [Compound 2]
Anti-Solvent Crystallization Result ([2]; anti-solvent 4-Me-2-Pentanone): Form-X | Anti-Solvent Crystallization Result ([2]; anti-solvent DEE): Form-XI | Anti-Solvent Crystallization Result ([2]; anti-solvent EtOAc): Form-XI | Anti-Solvent Crystallization Result ([2]; anti-solvent T-butyl-methyl-ether): Form-XI

C[C@@H](Oc1ccc2[nH]nc(-c3ccc(N4CC5(C4)CN(S(C)(=O)=O)C5)nc3)c2c1)c1c(Cl)cncc1Cl.O=P(O)(O)O [Form I of Compound 23]
hygroscopicity suggested by vapor sorption data [1]: hygroscopic

C[C@@H](Oc1ccc2[nH]nc(-c3ccc(N4CC5(C4)CN(S(C)(=O)=O)C5)nc3)c2c1)c1c(Cl)cncc1Cl [Form I of Compound 24]
stability suggested by vapor sorption / DVS data [1]: instability | weight loss observed in the DVS data [1]: about 3.27%

C[C@@H](Oc1ccc2[nH]nc(-c3ccc(N4CC5(C4)CN(S(C)(=O)=O)C5)nc3)c2c1)c1c(Cl)cncc1Cl.O=C(O)C(O)C(O)C(=O)O [Form I of Compound 25]
hygroscopicity suggested by vapor sorption data [1]: moderately hygroscopic

C[C@@H](Oc1ccc2[nH]nc(-c3ccc(N4CC5(C4)CN(S(C)(=O)=O)C5)nc3)c2c1)c1c(Cl)cncc1Cl.O=C(O)CC(=O)O [Form I of Compound 26]
hygroscopicity suggested by vapor sorption data [1]: moderately hygroscopic | weight loss observed in the DVS data [1]: about 2.1%

C[C@@H](Oc1ccc2[nH]nc(-c3ccc(N4CC5(C4)CN(S(C)(=O)=O)C5)nc3)c2c1)c1c(Cl)cncc1Cl.Cl [Form II of Compound 1]
hygroscopicity suggested by vapor sorption data [1]: moderately hygroscopic

C[C@@H](Oc1ccc2[nH]nc(-c3ccc(N4CC5(C4)CN(S(C)(=O)=O)C5)nc3)c2c1)c1c(Cl)cncc1Cl [Form II of Compound 5]
hygroscopicity suggested by vapor sorption data [1]: moderately hygroscopic

Br.C[C@@H](Oc1ccc2[nH]nc(-c3ccc(N4CC5(C4)CN(S(C)(=O)=O)C5)nc3)c2c1)c1c(Cl)cncc1Cl [Form II of Compound 12]
hygroscopicity suggested by vapor sorption data [1]: moderately hygroscopic

C[C@@H](Oc1ccc2[nH]nc(-c3ccc(N4CC5(C4)CN(S(C)(=O)=O)C5)nc3)c2c1)c1c(Cl)cncc1Cl.O=S(=O)(O)c1ccccc1 [Form VIII of compound 2]
solid form change during storage [3]: transformed to Form I of compound 2

Reference: patent US20260285871A1, “Polymorphic Compounds and Uses Thereof” (TYRA BIOSCIENCES, INC., priority 2022, published 2026)
